We go through two molecules from patent publication US20220227849A1, “INHIBITOR OF SURFACE PROTEIN (SP-D) / SIRPA / SHP2 PATHWAY FOR USE IN THE PREVENTION AND/OR TREATMENT OF SECONDARY INFECTION” (UNIVERSITÉ DE NANTES, priority 2019, published 2022).

In this assay the test system is alveolar macrophages. The assay can be described thus: In vivo phagocytic assay of alveolar macrophages 7 days after aseptic lung inflammatory response (intratracheal instillation). The conditions noted are these: wild type mice inoculated intratracheally 7 days prior; TNF-α 2.5 μg, HMGB1 10 μg; 2 hours after YFP-E. coli; FIG. 3f. On the procedure:
CpG 1668 (10 nM), TNF-α (2.5 μg, Myltenyi Biotec, Paris, France) and HMGB1 (10 μg, Elabscience, Tex., USA) were administrated intra-tracheally under anaesthesia. Mice were kept in a semi-recumbent position for 60 seconds after injection.
Recipient mice were γ-irradiated twice with […] and were reconstituted with 2.5-5×10^6 T cell-depleted bone marrow cells of each relevant donor strain at the indicated ratio. Neomycin (50 mg/ml) was added to the drinking water for the next 4 weeks. Chimeras were used for subsequent experiments 6 to 10 weeks after the reconstitution. Percentage of chimerism was tested during the experiments.
YFP-S. aureus (Strain RN4220 with YFP/erm2 plasmid, kindly gifted by Malone, C. L. et al. 2009 [29]), and YFP-E. coli (strain DH5alpha with p-HG-1 plasmid, kindly gifted by Janssen, W. J. et al 2011 [30]) were grown overnight in Luria broth media with erythromycin 10 μg/mL or 20 μg/mL chloramphenicol, respectively. Fluoresbrite YG carboxylate microspheres (3.64 10^9 beads, […]; Polysciences), YFP-E. coli (OD600=2-3, 75 μL) or YFP-S. aureus (OD600=5-6, 75 μL) were injected i.t. in mice. 2 hours later, the percentages of FITC or YFP^+ macrophages in the lungs were measured by flow cytometry. In vitro phagocytic assay for splenic macrophages

TNF-α: the “phagocytic function of AM after YFP-E. coli pneumonia” value is on record as “displayed impaired phagocytic function”.

B1: HMGB1: danger-associated molecular pattern protein (Elabscience) administered intra-tracheally (protein, UniProt P63158 1-215, looked up)
High mobility group protein B1: MGKGDPKKPRGKMSSYAFFVQTCREEHKKKHPDASVNFSEFSKKCSERWKTMSAKEKGKFEDMAKADKARYEREMKTYIPPKGETKKKFKDPNAPKRPPSAFFLFCSEYRPKIKGEHPGLSIGDVAKKLGEMWNNTAADDKQPYEKKAAKLKEKYEKDIAAYRAKGKPDAAKKGVVKAEKSKKKKEEEDDEEDEEDEEEEEEEEDEDEEEDDDDE
Regarding B1, the “phagocytic function of AM after YFP-E. coli pneumonia” value is “but not those of HMGB1 treated mice, displayed impaired phagocytic function”.
